Results on five compounds are retold here after ChEMBL document CHEMBL3797071, “Repurposing strategies for tropical disease drug discovery” (Bioorg Med Chem Lett, 2016).

The IC50 is the concentration that inhibits the measured activity by half. By EC50 is commonly meant the concentration needed to bring the measured effect to its halfway point.

Experiment [1] can be described thus: Inhibition of Trypanosoma brucei LeuRS assessed as formation of stable tRNA(Leu)-compound adduct in editing site of enzyme.
Experiment [2] deals with Trypanosoma brucei. The experiment can be described thus: Antiparasitic activity against Trypanosoma brucei […]. The format is functional, organism-based.
Experiment [3] relates to L929. The experiment can be described thus: Cytotoxicity against mouse L929 cells. The experiment is classed as cell-based.
Experiment [4] relates to Leishmania braziliensis. The experiment is described as follows: Antiparasitic activity against promastigote stage of Leishmania braziliensis MHOM/BR/2001/BA788 infected in BALB/c mouse assessed as reduction in parasite load at 20 mg/kg, ip administered for 15 days measured after 6 weeks by limiting dillution method. The format is functional. Details: scale not given: the % may be the effect or the level left.

In experiment [5] the test system is Leishmania chagasi. The experiment can be described thus: Antiparasitic activity against amastigote stage of Leishmania chagasi MHOM/BR/1972/LD infected in golden hamster assessed as reduction in parasite load at 20 mg/kg, ip administered for 15 days measured after 4 weeks by limiting dillution method. Also on record: scale not given: the % may be the effect or the level left. The format is functional.

For experiment [6], the system named is Leishmania chagasi. The experiment can be described thus: Antiparasitic activity against amastigote stage of Leishmania chagasi MHOM/BR/1972/LD infected in golden hamster assessed as golden hamster survival rate at 20 mg/kg, ip after 18 weeks by limiting dillution method. The experiment is classed as functional.
Experiment [7] deals with Brugia pahangi. The experiment can be described thus: Antifilarial activity against Brugia pahangi infected in gerbils assessed as reduction in worm burden at 5 mg/kg, bid in weekdays for 28 days. The experiment is classed as functional, organism-based. Also on record: scale not given: the % may be the effect or the level left.
The test system of experiment [8] is Brugia pahangi. The experiment is described as follows: Antifilarial activity against Brugia pahangi infected in gerbils assessed as reduction in worm burden at 5 mg/kg, sid in weekends for 28 days. The format is functional, organism-based. Also on record: scale not given: the % may be the effect or the level left.
The nature of experiment [9]: Selectivity ratio of IC50 for Onchocerca ochengi to IC50 for microfilariae of Loa loa. The format is functional.

In the case of `CCOC(=O)COc1ccc2c(c1)B(O)OC2`, in experiment [1], the IC50 stood at 3.5 µM. Moreover, the EC50 is 0.72 µM in experiment [2] and > 40 µM in [3].

With `CC(=O)C(C)(C)Oc1ccc2c(c1)B(O)OC2`, in experiment [1], the 50% inhibitory concentration (IC50) is 5 µM. Also, the figures for the EC50 in experiment [2] and in experiment [3] were 0.37 µM and > 40 µM, respectively.

Consider `CC/C(=C(\c1ccccc1)c1ccc(OCCN(C)C)cc1)c1ccccc1` [TAMOXIFEN], for which the Activity is 95% in experiment [4], 95% in [5] and 100% in experiment [6].

With `OB1OCc2cc(F)ccc21` [TAVABOROLE], the concentration for half-maximal inhibition (IC50) in experiment [1] is 22.1 µM.

Consider AURANOFIN, for which the Activity worked out at 58% in [7] and 91% in [8]. In addition, in [9], the Ratio IC50 is 43.
